Common to all, as to experiment: normalised viability (% of control), CellTiter-Blue; higher = more viable cells (about 100 = DMSO control)
Common to all, as to conditions: incubation time: 72 h
(In general: The colour change of resazurin is a common sign of viable cells or microbes.)

For experiment [1], the system named is CAL-51. On the procedure: (§1)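 DSRT, CellTiter-Blue viability, 72 h incubation. Signal is normalised to DMSO and benzethonium chloride controls. Value is the normalised response at dose 6.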
Experiment [2] deals with CAL-148. The procedure:
as §1

Experiment [3] relates to HDQ-P1. The procedure: as §1
Experiment [4] concerns DU-4475. On the procedure:
as §1

Experiment [5] relates to MDA-MB-453. On the procedure: as §1
Experiment [6] concerns CAL-85-1. On the procedure:
as §1

For `C[C@@H]1C=C2C(=O)O[C@@H]3CC[C@H](C1)[C@]23O` [Galiellalactone] (1500 nM), the normalised viability amounted to 106% in experiment [1]; 138% in experiment [2]; 65.4% in experiment [3]; 98.1% in experiment [4]; 103% in experiment [5]; 100% in experiment [6].
On to `COC1=C2C[C@@H](C)C[C@H](OC)[C@H](O)[C@@H](C)/C=C(\C)[C@H](OC(N)=O)[C@@H](OC)/C=C\C=C(/C)C(=O)NC(=CC1=O)C2=O` [Geldanamycin] (300 nM), for which the normalised viability in experiment [1] was 74.5%; in experiment [2], 28.9%; in experiment [3], 46.5%; in experiment [4], 0.05%; in experiment [5], 6.01%; in experiment [6], 47.7%.
For `O=P(O)(NCCCl)NCCCl` [Ifosfamide mustard] (300 nM), the normalised viability in experiment [1] is 100%; in experiment [2], 110%; in experiment [3] it was 54%; in experiment [4], 92.7%; in experiment [5], 114%; in experiment [6] it was 98%.
`Cn1cnc2c(F)c(Nc3ccc(Br)cc3F)c(C(=O)NOCCO)cc21` [MEK-162] (30 nM): the normalised viability in experiment [1] was determined as 96.5%; in experiment [2], 95.1%; in experiment [3], 47.6%; in experiment [4], 61.2%; in experiment [5] it was 118%; in experiment [6] it was 101%.
`CCOc1cc2ncc(C#N)c(Nc3ccc(OCc4ccccn4)c(Cl)c3)c2cc1NC(=O)/C=C/CN(C)C` [Neratinib] (30 nM): the normalised viability in experiment [1] was 96%; in experiment [2] it was 85.9%; in experiment [3], 94.3%; in experiment [4], 100%; in experiment [5], 81.2%; in experiment [6] it was 107%.
As for `COc1ccc(C2=N[C@@H](c3ccc(Cl)cc3)[C@@H](c3ccc(Cl)cc3)N2C(=O)N2CCNC(=O)C2)c(OC(C)C)c1` [Nutlin-3] (300 nM), the normalised viability in experiment [1] came to 99%; in experiment [2], 96.3%; in experiment [3], 66.2%; in experiment [4] it was 84.8%; in experiment [5], 91.2%; in experiment [6] it was 89.9%.
As for `COC1=CC(c2cc3ccccc3[nH]2)=N/C1=C\c1[nH]c(C)cc1C` [Obatoclax] (300 nM), the normalised viability in experiment [1] is 95.7%; in experiment [2], 91.1%; in experiment [3], 40.7%; in experiment [4] it was 75%; in experiment [5], 72.2%; in experiment [6] it was 66.2%.
On to `COC(=O)C[C@](O)(CCCC(C)(C)O)C(=O)O[C@@H]1C(OC)=C[C@]23CCCN2CCc2cc4c(cc2[C@H]13)OCO4` [Omacetaxine mepesuccinate] (300 nM), for which the normalised viability in experiment [1] stood at 7.35%; in experiment [2], 13.5%; in experiment [3] it was 10.2%; in experiment [4], 9.29%; in experiment [5], 20.1%; in experiment [6], 4.19%.
With `CC(=O)O[C@H]1C(=O)[C@@]2(C)[C@H]([C@H](OC(=O)c3ccccc3)[C@]3(O)C[C@H](OC(=O)[C@H](O)[C@@H](NC(=O)c4ccccc4)c4ccccc4)C(C)=C1C3(C)C)[C@]1(OC(C)=O)CO[C@@H]1C[C@@H]2O` [Paclitaxel] (30 nM), the normalised viability in experiment [1] turned out to be 38.8%; in experiment [2] it was 20.8%; in experiment [3], 33.7%; in experiment [4], 39.6%; in experiment [5], 26.1%; in experiment [6] it was 32.6%.
With `CC(C)(C)c1cc(NC(=O)Nc2ccc(-c3cn4c(n3)sc3cc(OCCN5CCOCC5)ccc34)cc2)no1` [Quizartinib] (30 nM), the normalised viability in experiment [1] was found to be 101%; in experiment [2], 103%; in experiment [3], 53.4%; in experiment [4] it was 109%; in experiment [5] it was 102%; in experiment [6] it was 97.2%.
Turning to `COc1cc(Nc2ncc(F)c(Nc3ccc4c(n3)NC(=O)C(C)(C)O4)n2)cc(OC)c1OC` [R406] (300 nM), the normalised viability in experiment [1] was determined as 114%; in experiment [2] it was 108%; in experiment [3], 102%; in experiment [4], 87.5%; in experiment [5], 109%; in experiment [6] it was 98.3%.
With `O=C(c1ccc(OCCN2CCCCC2)cc1)c1c(-c2ccc(O)cc2)sc2cc(O)ccc12` [Raloxifene] (300 nM), the normalised viability turned out to be 100% in experiment [1]; 102% in experiment [2]; 84.6% in experiment [3]; 114% in experiment [4]; 102% in experiment [5]; 105% in experiment [6].
With `Cn1c(=O)c(F)c(Nc2ccc(I)cc2F)c2c(=O)n(C[C@@H](O)CO)cnc21` [TAK-733] (30 nM), the normalised viability was 89.7% in experiment [1]; 98.7% in experiment [2]; 77.7% in experiment [3]; 1.81% in experiment [4]; 112% in experiment [5]; 84.5% in experiment [6].
Regarding `CCS(=O)(=O)c1cccc(-c2cc(C(=O)NC3CCN(C)CC3)c(C)c3[nH]c4ncc(C)cc4c23)c1` [TAK-901] (30 nM), the normalised viability was found to be 78.1% in experiment [1]; 42.2% in experiment [2]; 96.5% in experiment [3]; 90.6% in experiment [4]; 55.5% in experiment [5]; 79.4% in experiment [6].
As for `c1ccc(C2CN3CCSC3=N2)cc1` (stereo unspecified) [Tetramisole] (300 nM), the normalised viability is 93.3% in experiment [1]; 102% in experiment [2]; 129% in experiment [3]; 98.6% in experiment [4]; 103% in experiment [5]; 102% in experiment [6].
On to `CCCC(CCC)C(=O)O` [Valproic acid] (300 nM), for which the normalised viability in experiment [1] was 103%; in experiment [2], 103%; in experiment [3], 112%; in experiment [4], 83.7%; in experiment [5], 103%; in experiment [6], 90%.
